“Also recorded” adds a separate entry of the source.
Experiments:
[1] = test system: adult human dermal fibroblasts (CRL-2352); test: Effect of FGF2 and oxygen level on proliferation and in vitro lifespan (population doublings to senescence); format: cell-based; settings: FGF2 10 ng/ml
[2] = test system: FGFR1, FGFR2, FGFR3, FGFR4 and FGF2 in adult human dermal fibroblasts; test: Expression and localization of FGF2 and FGF receptors (RT-PCR, immunocytochemistry); format: cell-based
Experimental: Adult human fibroblasts (CRL-2352, ATCC) were cultured in conditions of 37° C., 5% CO2, 5% O2 90% N2 were seeded into 24 well plates (BD Falcon) either without substrate or with 15 mm Thermanox® coverslips (Nalge Nunc) at 5,000 cells per well in medium consisting of DMEM with 4 mM fresh L-glutamine: Ham's F12 medium (50:50) supplemented with 1×TCH serum replacement (Protide Pharmaceuticals), 1×ITS-X (Invritrogen), 2% FetalClone III (Hyclone), and 4 ng/ml FGF2 (Chemicon). After 5 days, the cells were washed with DPBS w/o Ca/Mg (Mediatech) and fixed in methanol (−20° C.) for 10 min, washed with DPBS and stored in DPBS at 4° C. until use. For detection of nuclear antigens (Msx-1, Msx-2, Sox-2, Oct-4 and Nanog), enhanced nuclear membrane permeabilization was performed by incubation with 1.5 N HCl for 20 min, followed by 3 washes (5 min) in PBS. For immuno-cytochemistry, cells were washed with PBS/Tween (PBS, MediaTech with 0.05% Tween-20, Biorad) and blocked for 30 min at RT with PBS containing 0.05% Tween, 5% FBS, and 1% BSA). Primary antibodies (1:200 dilution) were added in blocking solution for 30 min at RT. Cells were washed 4× in PBS/Tween and Alexafluor-568 labeled appropriate secondary antibody diluted 1:1000 in blocking solution added for 30 min. Cells were washed 4× in PBS/Tween and stored in PBS at 4 C until image analysis. Antibodies used were: Msx-1 (SantaCruz, sc-17726), Msx-2 (Santa Cruz, sc-17729), Sox-2 (Abeam, ab15830), Oct4 (Santa Cruz, sc-8630), Nanog (abeam ab21624) FGF receptor-1 (Abgent, AP7636a), FGF Receptor-2 (Abgent, AP7636a), FGF2 (N-terminus, Santa Cruz sc-1390), FGF2 (internal, Santa Cruz sc-79), fibroblast specific protein (FSP, Sigma). Coverslips were removed and mounted onto glass slides in 80% glycerol in PBS containing 0.1% Na-Azide and sealed with nail polish. Cells were visualized using at Olympus IX81 inverted microscope with epi-fluorescence using appropriate filters (Semrock, Inc.) and phase contrast. Images were collected using a 12 bit Hamamatzu CCD camera (Model C4742-80-12AG) and images processes using Slidebook®. […]

- FGFR4 localization ([2]; FGF2 addition): no effect
- transcription of FGF receptors or FGF2 itself ([2]; regardless of the culture conditions): no significant effect
Substance: FGF2: human recombinant FGF2 (Invitrogen, Chemicon or Protide), basic fibroblast growth factor
- effect on adult fibroblast proliferation at 10 ng/ml [1]: halted adult fibroblast proliferation
- localization of FGF2, FGFR1 and FGFR2 (immunocytochemistry) ([2]; cells supplemented with FGF2): in the nucleus as well as on the cell surface; also recorded: translocated to the nucleus

— patent US9290740B2, “Use of basic fibroblast growth factor in the de-differentiation of animal connective tissue cells” (Worcester Polytechnic Institute, priority 2008, dated 2016)
